In patent publication US20260144798A1, “Disruption of Vascular Smooth Muscle Relaxation by Carfilzomib May be the Primary Reason for CFZ-Induced Vascular Dysfunction” (AMGEN INC., priority 2019, published 2026):

Columns and labels:
[1] = test system: rat aortic rings; assay: Basal vascular tone of isolated rat aortic rings, isometric myograph
Procedure: An isometric myograph (DMT 620M) was used for ex vivo measurement of vascular function. Eight-to 10-week old Sprague Dawley rats (purchased from Charles River Laboratories, Wilmington, MA) were first anesthetized with 3% isoflurane and then euthanized using inhaled desflurane. The aortas were isolated in an ice-cold, oxygenated (95% O2, 5% CO2) Krebs-Henseleit buffer (118.3 mM NaCl, 4.7 mM KCl, 1.2 mM MgSO4, 1.2 mM KH2PO4, 2.5 mM CaCl2, 25 mM NaHCO3, and 11.0 mM glucose; purchased from Sigma-Aldrich, St. Louis, MO). The thoracic aorta was carefully cleaned to remove perivascular fat and cut into 2-mm rings that were mounted between two stainless steel wires in the myograph chamber containing 8 mL of Krebs-Henseleit buffer in 95% O2 and 5% CO2 at 37° C. First, the rings were equilibrated in the chamber for 20 minutes, followed by a gradual increase of mechanical stretch until a final stretch of 10 mN (Newton) was reached. After an additional incubation with fresh buffer for 30 minutes, the rings were constricted with 8 mL of 80 mM KPSS (43 mM NaCl, 80 mM KCl, 2.5 mM CaCl2, 1.2 mM MgSO4, 1.2 mM KH2PO4, 25.0 mM NaHCO3, and 11.0 mM glucose) for 15 to 20 minutes, followed by 3 washes with the Krebs-Henseleit buffer until the force returned to the baseline stretch. The tension of the aortic rings was continuously measured with the Lab Chart 7 data acquisition system (ADInstruments, Colorado Springs, CO). In Some of the experiments the aortic rings were pre-treated with 100 μM N(gamma)-nitro-L-arginine methyl ester (L-NAME; Sigma-Aldrich) and 10 μM indomethacin for 10 minutes prior to the pre-incubation with CFZ (Amgen Inc.) for 2 hours. After an additional incubation with fresh buffer for 30 minutes, the rings were constricted with 8 mL of 80 mM KPSS (43 mM NaCl, 80 mM KCl, 2.5 mM CaCl2, 1.2 mM MgSO4, 1.2 mM KH2PO4, 25.0 mM NaHCO3, and 11.0 mM glucose) for 15 to 20 minutes, followed by 3 washes with the Krebs-Henseleit buffer until the force returned to the baseline stretch. The tension of the aortic rings was continuously measured with the Lab Chart 7 data acquisition system (ADInstruments, Colorado Springs, CO).
To assess the effect of CFZ on vascular contraction, the aortic rings were pre-treated with or without CFZ for 2 hours, followed by treatment with an increasing concentration of phenylephrine (PE) from 10 nM to 1 μM. After the maximum contraction was achieved, the aortic rings were washed 3 times until the force returned to baseline. The contraction was continuously measured and plotted as percent contraction normalized to the response of KPSS. […] The relaxation was continuously measured and plotted as percent relaxation normalized to the response with 1 μM PE. […]

[2] = test system: sGC-β; assay: Western blot of sGC-β in rat aortic smooth muscle cells; assay type: cell-based; conditions: CFZ for more than 12 hours (FIG. 4A)
Procedure: Each cell pellet was lysed in 50 to 70 μL RIPA buffer (Cell Signaling Technology, Danvers, MA) with the Halt™ protease and phosphatase inhibitor cocktail (Thermo Fisher Scientific). Lysates were quantitated and loaded onto the Li-COR Western blot system. Antibodies specific to phosphorylated eNOS and eNOS from Thermo Fisher Scientific, anti-Guanylyl Cyclase β1 (ER-19) (Sigma-Aldrich), and β-Actin (Sigma-Aldrich) were diluted 1:1000 for Western blot. Antibodies specific to p-VASP, VASP, and GADPH-HRP were purchased from Cell Signaling Technology.

[3] = test system: VASP; assay: Western blot of p-VASP (S239) in rat thoracic aortic tissue; conditions: CFZ treatment vs vehicle control (FIG. 6A)
Procedure: Each cell pellet was lysed in 50 to 70 μL RIPA buffer (Cell Signaling Technology, Danvers, MA) with the Halt™ protease and phosphatase inhibitor cocktail (Thermo Fisher Scientific). Lysates were quantitated and loaded onto the Li-COR Western blot system. Antibodies specific to phosphorylated eNOS and eNOS from Thermo Fisher Scientific, anti-Guanylyl Cyclase β1 (ER-19) (Sigma-Aldrich), and β-Actin (Sigma-Aldrich) were diluted 1:1000 for Western blot. Antibodies specific to p-VASP, VASP, and GADPH-HRP were purchased from Cell Signaling Technology. […] The number of measurements is indicated by “n.” #denotes P<0.05 (red vs. blue).

CC(C)C[C@H](NC(=O)[C@H](CCc1ccccc1)NC(=O)CN1CCOCC1)C(=O)N[C@@H](Cc1ccccc1)C(=O)N[C@@H](CC(C)C)C(=O)[C@@]1(C)CO1 [CFZ, carfilzomib]
percent contraction under eNOS inhibition (limited NO availability) ([1]; 100 μM L-NAME and 10 μM indomethacin 10 minutes prior to 2-hour CFZ treatment, vs vehicle (FIG. 1B)): significant but minor increase of percent contraction
vascular tone (contraction normalized to 80 mM KPSS) ([1]; 100 μM LNAME+10 μM indomethacin, 2.7 μM CFZ for 3 hour, vs vehicle (FIG. 10)): increase in vascular tone compared to vehicle
percent contraction (basal vascular tone) ([1]; rings pretreated with CFZ without L-NAME, compared with vehicle control (FIG. 1A)): did not affect vascular tone
sGC-β protein level [2]: increased with increasing exposure to CFZ
level of p-VASP [3]: reduced level of p-VASP compared with the vehicle control
